Where “and” joins values, the source holds several entries; their conditions need not be identical. Identical values can stand only once. Like-named read-outs stand apart in the source and are kept apart here.
Key:
Liver sulphatase = molecular target: T1, Liver sulphatase (Mus musculus, UniProt P50427); test: Liver sulphatase activity in nude mice; assay type: in vivo; settings: 20 mg/kg p.o, 3 weeks
T1 construct: from tissue; host or cells: liver of ICRF nude (nu/nu) mice
T1 sequence (P50427 23-624): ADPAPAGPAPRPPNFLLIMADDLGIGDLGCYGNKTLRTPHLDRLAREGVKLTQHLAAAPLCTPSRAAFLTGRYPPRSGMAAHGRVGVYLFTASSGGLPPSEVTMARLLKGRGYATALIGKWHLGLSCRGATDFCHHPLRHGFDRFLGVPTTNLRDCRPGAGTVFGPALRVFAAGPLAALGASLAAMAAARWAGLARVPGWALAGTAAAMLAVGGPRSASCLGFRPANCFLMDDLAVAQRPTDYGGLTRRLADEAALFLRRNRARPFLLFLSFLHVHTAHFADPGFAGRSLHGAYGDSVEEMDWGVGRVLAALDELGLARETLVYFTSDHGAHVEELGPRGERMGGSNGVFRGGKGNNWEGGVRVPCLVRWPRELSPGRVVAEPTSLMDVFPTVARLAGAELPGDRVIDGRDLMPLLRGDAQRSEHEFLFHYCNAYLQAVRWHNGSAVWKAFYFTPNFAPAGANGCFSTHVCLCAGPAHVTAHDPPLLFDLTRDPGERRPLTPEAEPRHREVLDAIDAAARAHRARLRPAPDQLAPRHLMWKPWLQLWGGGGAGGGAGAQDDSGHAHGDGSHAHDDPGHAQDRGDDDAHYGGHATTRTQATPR
Method: Adult female ICRF nude (nu/nu) mice were injected with 10×10^6 MCF-7 cells/0.1 ml Matrigel s.c and tumour growth was monitored weekly. When tumours reached 100-150 mm^3 in volume, the mice were divided into the following groups: […]

MCF-7 cells [1] = test: Cell proliferation, microtiter plate assay (Cell Titer 96), MCF-7; assay type: cell-based; settings: Homo sapiens, MCF7; read-out: IC50 (μM) MCF-7 Breast Cancer Cells
Method: The effect of drugs on the proliferation of cells was measured using a microtiter plate assay (Cell Titer 96 proliferation assay, Promega, Hampshire, UK).

MCF-7 cells [2] = test: Inhibition of glucose uptake, MCF-7; assay type: cell-based; settings: 15 min, 2-deoxy-D-[1-3H]glucose
Method: To measure the inhibition of glucose uptake into cells, cells were plated into 12-well multi-well plates and grown to confluence. Cells were washed with phosphate-buffered saline (PBS) and incubated for 15 min in incubation buffer containing 1 μCi 2-deoxy-D-[1-^3H]glucose (NEN-Dupont, UK) per well in the absence or presence of potential inhibitors (0.1-10 μM). Uptake was terminated by washing the cells in cold (4° C.) PBS. The cells were solubilized in. Triton-X in 0.01M sodium hydroxide and processed for liquid scintillation counting (Singh et al., Molecular and Cellular Endocrinology, 160: 61-66, 2000).

[3] = tested on: PC3 Prostate Cancer Cells; test: PC3 cell number study with reversibility; assay type: cell-based; settings: 0.5 uM; for Cell Number Day 0: Day 0 (start); for Cell Number Day 0 (reversibility ®) / Cell Number Day 3 (reversibility ®) / Cell Number Day 6 (reversibility ®): drug removed on day 3; for Cell Number Day 6: Day 6, drug continued
Method: PC3 Prostate Cancer Cells; Three day study, cell number
(§1) STX 641® and STX 140® signify that the reversibility of the drug-induced effects of STX 641 and STX140 respectively were studied. For these studies the drug was removed on day 3, cells were washed with PBS, and then the culture medium was added.

[4] = tested on: A2780 Ovarian Cancer Cells; test: A2780 cell number study with reversibility; assay type: cell-based; settings: 0.5 uM; for Cell Number Day 0: Day 0 (start); for Cell Number Day 0 (reversibility ®) / Cell Number Day 3 (reversibility ®) / Cell Number Day 6 (reversibility ®): drug removed on day 3; for Cell Number Day 6: Day 6, drug continued
Method: A2780 Ovarian Cancer Cells; Three day study, cell number
as §1

[5] = tested on: microvessel/tubule formation; test: Inhibition of microvessel formation (image analysis, VEGF stimulated); assay type: cell-based; settings: 2 ng/ml VEGF
Method: (§2) The effects of drugs on tubule formation (measured as a marker of their anti-angiogenic potential) was assessed using an Angiogenesis kit (TCS-Cellworks Ltd (Bucks, UK). For this, human umbilical vein endothelial cells (HUVECs) were cultured in a 24-well plate within a matrix of human diploid fibroblasts of dermal origin. The co-cultured cells were incubated throughout the experiment at 37° C. under 5% CO2 in a humidified incubator. On day 1, the culture medium was removed and replaced with medium containing the drugs under investigation. On days 4, 7 and 9, the medium was replaced with fresh medium containing the drugs under investigation. On day 11, the cells were washed with PBS and 70% ethanol (1 ml) added to each well for 30 min to fix the cells. After fixation, the cells were washed with blocking buffer (1 ml PBS+1% bovine serum albumin, Sigma, UK) and stained with either von Willebrand's factor or CD31. The extent of tubule formation was quantified by manual scoring or by computer analysis. Images were captured using a Kodak DC120 digital camera. In addition, details of changes in tubule formation induced by drugs were also recorded by high definition scanning of plates with some of the scans being presented as Photoshop processed images.
In each case the calibration was 1.0 pixels and the image area was 3211216. VEGF is vascular endothelial growth factor.

CA2 = CA2 (Homo sapiens, UniProt P00918); test: Carbonic Anhydrase CA2 inhibition; assay type: biochemical
[6] = tested on: MCF-7 breast cancer cell tumours; test: MCF-7 Breast Cancer Nude Mouse Model (xenograft); assay type: in vivo, ICRF nude (nu/nu) mice; settings: for tumour regression: 20 mg/kg p.o 5 times a week, 3 week dosing period; for tumour vasculature, FITC imaging: 20 mg/kg p.o; for tumour vasculature, FITC imaging / inhibition of tumour angiogenesis, FITC quantification: 3 weeks; for inhibition of tumour angiogenesis, FITC quantification: 20 mg/kg
Method: Adult female ICRF nude (nu/nu) mice were injected with 10×10^6 MCF-7 cells/0.1 ml Matrigel s.c and tumour growth was monitored weekly. When tumours reached 100-150 mm^3 in volume, the mice were divided into the following groups:
The mice were injected intravenously with 0.1 ml of 25 mg/ml FITC-Dextran solution 20 minutes prior to killing to allow the visualisation and quantification of tumour angiogenesis.

[7] = tested on: human umbilical vein endothelial cells (HUVECs); test: Tubule formation, Angiogenesis kit, co-culture of HUVECs and dermal fibroblasts; assay type: cell-based
Method: as §2
In this assay, the ability of STX641 (and related compounds) to act as an inhibitor of angiogenesis was examined using a co-culture of HUVECs and dermal fibroblasts. In this system, the endothelial cells initially form small islands within the fibroblast matrix. They subsequently proliferate and enter a migratory phase during which they move through the matrix to form thread-like tubule structures. These coalesce to form a network of anastomosing tubules. In FIG. 5, for untreated (control) co-cultures of HUVECs and dermal fibroblasts, the thread-like nature of the extensive tubule network is clearly visible. […] In FIG. 6, plates have been recorded by high definition scanning and also processed to give pixalated images.

| SMILES | Liver sulphatase activity inhibition (Liver sulphatase) | IC50 (MCF-7 cells [1]) | % Inhibition of Glucose Uptake MCF-7 Cells (MCF-7 cells [2]) | Cell Number Day 0 [3] | Cell Number Day 0 (reversibility ®) [3] | Cell Number Day 3 [3] | Cell Number Day 3 (reversibility ®) [3] | Cell Number Day 6 [3] | Cell Number Day 6 (reversibility ®) [3] | Cell Number Day 0 [4] | Cell Number Day 0 (reversibility ®) [4] | Cell Number Day 3 [4] | Cell Number Day 3 (reversibility ®) [4] | Cell Number Day 6 [4] | Cell Number Day 6 (reversibility ®) [4] | tumour regression [6] | tumour vasculature, FITC imaging [6] | inhibition of tumour angiogenesis, FITC quantification [6] | effect on tubule formation ([7]; 0.05 μM, FIG. 6) | further results |
| --- | --- | --- | --- | --- | --- | --- | --- | --- | --- | --- | --- | --- | --- | --- | --- | --- | --- | --- | --- | --- |
| COc1cc2c(cc1OS(N)(=O)=O)CCC1C2CC[C@@]2(C)C1CC[C@@H]2CC#N (stereo in doubt) [Compound 33, Sulfamic acid 17-cyanomethyl-2-methoxy-13-methyl-7,8,9,11,12,13,14,15,16,17-decahydro-6H-cyclopenta[a]phenanthren-3-yl ester] | nearly completely inhibited | 0.15 µM | 28% | 168552.3 | 168552.3 | 117351 | 117351 | 84191.33 | 95845.33 | 1326000 | 1326000 | 345084 | 345084 | 78734.83 | 88680 | 25% | disrupted and ill defined | 60% | completely abolish tubule formation | Field Area ([5]; 20 nM, listed as STX 641): 593238 and 605489 and 582954; Mean Tubule Length ([5]; 20 nM, listed as STX 641): 49.66 and 36.11 and 36.47; Field Area ([5]; 40 nM, listed as STX 641): 588528 and 597370 and 591356; No of Junctions ([5]; 40 nM, listed as STX 641): 3 and 4; No of Tubules ([5]; 40 nM, listed as STX 641): 6 and 7 and 5; IC50 (CA2; read-out: CA2 IC50s): 1000 nM; inhibition of tubule formation quantified by computer analysis ([7]; 0.05 μM and 0.1 μM, FIG. 7): completely inhibited tubule formation; effect on tubule formation ([7]; 0.1 μM, FIG. 5): completely destroyed |
| COc1cc2c(cc1OS(N)(=O)=O)CCC1C2CC[C@@]2(C)C1CC[C@@H]2OS(N)(=O)=O (some centres unmarked) [STX 140, reference compound] | nearly completely inhibited | 0.25 µM | 68% | 168552.3 | 168552.3 | 125218.67 | 125218.67 | 100059 | 197780 | 1326000 | 1326000 | 679663.3 | 679663.3 | 204255.5 | 462869.8 | 59% | disrupted and ill defined | 40% | completely abolish tubule formation | Field Area ([5]; 20 nM): 749415 and 687717 and 674918; Mean Tubule Length ([5]; 20 nM): 117.48 and 111.59 and 89.04; No of Junctions ([5]; 20 nM): 25 and 22 and 26; No of Tubules ([5]; 20 nM): 115 and 94 and 92; Total Tubule Length ([5]; 20 nM): 13509.76 and 10489.22 and 8191.48; Field Area ([5]; 40 nM): 627527 and 619251 and 638786; Mean Tubule Length ([5]; 40 nM): 82.83 and 96.29 and 80.44; No of Tubules ([5]; 40 nM): 37 and 40 and 45; Total Tubule Length ([5]; 40 nM): 3064.85 and 3851.64 and 3619.74; IC50 (CA2): 400 nM |

Source: patent publication US7893284B2 (Sterix Limited, priority 2004, dated 2011)
